Measurements published in ChEMBL document CHEMBL1140023, “Synthesis of marine alkaloid: 8,9-dihydrocoscinamide B and its analogues as Novel class of antileishmanial agents” (2007).
Active and inactive are the calls of the source. The rule behind the calls is not given here.

Experiments:
Type in all cases: functional
Leishmania donovani [1] = assay: Antileishmanial activity against Leishmania donovani assessed as inhibition of promastigotes at 10 ug/ml
Leishmania donovani [2] = assay: Antileishmanial activity against Leishmania donovani assessed as inhibition of amastigotes at 10 ug/ml
Leishmania donovani [3] = assay: Antileishmanial activity against Leishmania donovani assessed as inhibition of promastigotes at 0.5 ug/ml
Leishmania donovani [4] = assay: Antileishmanial activity against Leishmania donovani assessed as inhibition of amastigotes at 50 ug/ml

Row | SMILES | inhibition at 10 µg/mL (Leishmania donovani [1]) [%] | further results
1 | COc1ccc(CCNC(=O)C(=O)c2c[nH]c3ccccc23)cc1OC | 78.2 | –
2 | O=C(NCCc1c[nH]c2ccccc12)C(=O)c1c[nH]c2ccccc12 | 100 | inhibition at 10 µg/mL (Leishmania donovani [2]): 97.7%
3 | N=C(N)c1ccc(OCCCCCOc2ccc(C(=N)N)cc2)cc1 [PENTAMIDINE] | 30 | inhibition at 0.5 µg/mL (Leishmania donovani [3]): 85%; inhibition at 50 µg/mL (Leishmania donovani [4]): 90%
4 | O=C(NCCc1cn(S(=O)(=O)c2ccccc2)c2ccccc12)C(=O)c1cn(S(=O)(=O)c2ccccc2)c2ccccc12 | 49 | –
5 | O=C(NCc1ccco1)C(=O)c1c[nH]c2ccccc12 | 99.2 | Activity (Leishmania donovani [2]): inactive
6 | O=C(NCCCn1ccnc1)C(=O)c1c[nH]c2ccccc12 | 55.5 | –
7 | N=C(N)NC(=O)C(=O)c1c[nH]c2ccccc12 | 55 | –
8 | O=C(NCCc1c[nH]c2ccccc12)C(=O)c1c[nH]c2cc(Br)ccc12 | 99.2 | inhibition at 10 µg/mL (Leishmania donovani [2]): 75.1%
9 | O=C(Nc1ccc2[nH]ccc2c1)C(=O)c1c[nH]c2ccccc12 | 93.7 | Activity (Leishmania donovani [2]): Active
10 | O=C(NCc1ccccc1)C(=O)c1c[nH]c2ccccc12 | 53.9 | –
11 | O=C(NCCc1c[nH]c2ccccc12)C(=O)c1c[nH]c2c(Cl)cccc12 | 99.1 | inhibition at 10 µg/mL (Leishmania donovani [2]): 59.1%
12 | CN1CCN(C(=O)C(=O)c2c[nH]c3ccccc23)CC1 | 35.9 | –
13 | Cn1cc(CCNC(=O)C(=O)c2cn(C)c3ccccc23)c2ccccc21 | 99 | inhibition at 10 µg/mL (Leishmania donovani [2]): 97.8%
14 | COc1ccc(CCNC(=O)C(=O)c2c[nH]c3ccccc23)cc1 | 68.5 | –
15 | O=C(Nc1nc2ccccc2s1)C(=O)c1c[nH]c2ccccc12 | 18 | –
16 | O=C(C(=O)N1CCOCC1)c1c[nH]c2ccccc12 | 83.2 | inhibition at 10 µg/mL (Leishmania donovani [2]): 78.1%
17 | O=C(NCCCN1CCOCC1)C(=O)c1c[nH]c2ccccc12 | 73 | –
